The assay concerns BDF1 mice, P388 leukemia ip, median survival T/C. Description: NCI In Vivo Anticancer Drug Screen. Data for tumor model P388 Leukemia (intraperitoneal) in B6D2F1 (BDF1) mice. To be noted: endpoint: median survival time, higher = longer survival. The gist of the method: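 Compound-treated tumour-bearing mice were compared with vehicle-treated controls. Survival was recorded, and the value is the treated-group measurement divided by the control-group measurement (T/C).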

[1] abbreviates: dose: 50.0 mg/kg/injection, schedule: Q04DX003 (ip), vehicle: Klucel (hydroxypropylcellulose) (HPC).
Where [2] appears, read: dose: 100.0 mg/kg/injection, schedule: Q04DX003 (ip), vehicle: Klucel (hydroxypropylcellulose) (HPC).
Setting [3] is: dose: 200.0 mg/kg/injection, schedule: Q04DX003 (ip), vehicle: Klucel (hydroxypropylcellulose) (HPC).
Where [4] appears, read: dose: 100.0 mg/kg/injection, schedule: Q01DX009 (ip), vehicle: saline.
Setting [5] is: dose: 100.0 mg/kg/injection, schedule: Q04DX003 (ip), vehicle: saline with Tween-80.
Setting [6] is: dose: 200.0 mg/kg/injection, schedule: Q04DX003 (ip), vehicle: saline with Tween-80.
[7] abbreviates: dose: 400.0 mg/kg/injection, schedule: Q04DX003 (ip), vehicle: saline with Tween-80.
The mark [8] stands for this setting: dose: 100.0 mg/kg/injection, schedule: Q01DX009 (ip), vehicle: saline with Tween-80.
Setting [9] is: dose: 400.0 mg/kg/injection, schedule: Q01DX001 (ip), vehicle: saline.
Where [10] appears, read: dose: 50.0 mg/kg/injection, schedule: Q04DX003 (ip), vehicle: saline.
Where [11] appears, read: dose: 100.0 mg/kg/injection, schedule: Q04DX003 (ip), vehicle: saline.

The source of these data is PubChem BioAssay AID328 (DTP/NCI, 2004).

Several values for one entry are separate records, joined by “and”; a condition that tells them apart may be missing. Equal values may be shown once. Toxic doses and inconclusive results are not listed.

As for `Nc1cccc2c1C(=O)c1cccc(NC(=O)c3ccccc3)c1C2=O`, the T/C by setting is: (dose: 6.25 mg/kg/injection, schedule: Q01DX009 (ip), vehicle: Klucel (hydroxypropylcellulose) (HPC)) 104 % of control; (dose: 12.5 mg/kg/injection, schedule: Q01DX009 (ip), vehicle: Klucel (hydroxypropylcellulose) (HPC)) 109 % of control; (dose: 25.0 mg/kg/injection, schedule: Q01DX009 (ip), vehicle: Klucel (hydroxypropylcellulose) (HPC)) 116 % of control; (dose: 50.0 mg/kg/injection, schedule: Q01DX009 (ip), vehicle: Klucel (hydroxypropylcellulose) (HPC)) 113 % of control; (dose: 100.0 mg/kg/injection, schedule: Q01DX009 (ip), vehicle: Klucel (hydroxypropylcellulose) (HPC)) 115 % of control; (dose: 200.0 mg/kg/injection, schedule: Q01DX009 (ip), vehicle: Klucel (hydroxypropylcellulose) (HPC)) 122 % of control. In addition, for the setting “dose: 400.0 mg/kg/injection, schedule: Q01DX009 (ip), vehicle: Klucel (hydroxypropylcellulose) (HPC)”, the T/C was 151 % of control.
For the molecule `Nc1ccc(Nc2ccncc2)cc1`, the T/C by setting is: under setting [1], 100 % of control; under setting [2], 95 % of control; under setting [3], 90 % of control.
With `NCCCC(N)(CO)C(=O)O` (configuration not stated), the T/C is, setting by setting: (dose: 50.0 mg/kg/injection, schedule: Q01DX009 (ip), vehicle: saline) 91 % of control; under setting [4], 97 % of control; (dose: 200.0 mg/kg/injection, schedule: Q01DX009 (ip), vehicle: saline) 100 % of control.
With `CCCSCCCC(=O)O`, the T/C was 91 % of control under setting [1] and 91 % of control under setting [3].
Turning to `CCc1c(/C=C2/OC(=O)NC2=O)[nH]c(=S)[nH]c1=O`, the T/C by setting is: under setting [5], 100 % of control; under setting [6], 91 % of control; under setting [7], 104 % of control.
Turning to `CCCCCC#CC1OC1(C)C` (configuration not stated), the T/C (dose: 12.5 mg/kg/injection, schedule: Q01DX009 (ip), vehicle: saline with Tween-80) is 97 % of control and 100 % of control; the T/C (dose: 25.0 mg/kg/injection, schedule: Q01DX009 (ip), vehicle: saline with Tween-80) is 101 % of control and 103 % of control; the T/C (dose: 50.0 mg/kg/injection, schedule: Q01DX009 (ip), vehicle: saline with Tween-80) was 108 % of control and 116 % of control; the T/C under setting [8] is 108 % of control and 117 % of control and 121 % of control.
Take `CCCCNS(=O)(=O)c1ccc(OC)c(N)c1`: the T/C was 95 % of control under setting [2]; 100 % of control under setting [3]; 100 % of control (dose: 400.0 mg/kg/injection, schedule: Q04DX003 (ip), vehicle: Klucel (hydroxypropylcellulose) (HPC)).
For `CNNCc1ccc(C(=O)NC(C)C)cc1`, the T/C (dose: 37.5 mg/kg/injection, schedule: Q01DX010 (ip), vehicle: saline) is 100 % of control; the T/C under setting [4] was 112 % of control and 116 % of control; the T/C (dose: 120.0 mg/kg/injection, schedule: Q01DX009 (ip), vehicle: saline) was 106 % of control; the T/C (dose: 125.0 mg/kg/injection, schedule: Q01DX009 (ip), vehicle: saline) was 123 % of control; the T/C (dose: 225.0 mg/kg/injection, schedule: Q01DX009 (ip), vehicle: saline) was 180 % of control; the T/C (dose: 250.0 mg/kg/injection, schedule: Q01DX009 (ip), vehicle: saline) was 161 % of control. Moreover, the T/C under setting [9] was 109 % of control.
`CCCCOP(=O)(N1CC1CC)N1CC1CC` (configuration not stated): the T/C reads like this: under setting [10], 123 % of control; (dose: 60.0 mg/kg/injection, schedule: Q04DX003 (ip), vehicle: saline) 122 % of control; (dose: 85.0 mg/kg/injection, schedule: Q04DX003 (ip), vehicle: saline) 122 % of control; under setting [11], 150 % of control; (dose: 133.0 mg/kg/injection, schedule: Q04DX003 (ip), vehicle: saline with Tween-80) 109 % of control; (dose: 133.0 mg/kg/injection, schedule: Q04DX003 (ip), vehicle: saline) 100 % of control. The T/C under setting [6] is 109 % of control and the T/C (dose: 300.0 mg/kg/injection, schedule: Q04DX003 (ip), vehicle: saline) is 176 % of control.
As for `COc1ccc2c(c1OC)CCN1C3=C(CC4(CC3)OCCO4)C(=O)CC21` (configuration not stated), the T/C runs as follows: (dose: 100.0 mg/kg/injection, schedule: Q04DX003 (ip), vehicle: saline sonified) 105 % of control; (dose: 200.0 mg/kg/injection, schedule: Q04DX003 (ip), vehicle: saline sonified) 100 % of control; (dose: 400.0 mg/kg/injection, schedule: Q04DX003 (ip), vehicle: saline sonified) 90 % of control.
Turning to `O=[N+]([O-])c1ccc(N2CC2)c2c1no[n+]2[O-]`, the T/C (dose: 15.0 mg/kg/injection, schedule: Q04DX003 (ip), vehicle: saline with Tween-80) was 109 % of control.
Turning to `COCCNCCN1CCN(CCCN2c3ccccc3Sc3ccc(C(F)(F)F)cc32)CC1`, the T/C runs as follows: (dose: 20.0 mg/kg/injection, schedule: Q04DX003 (ip), vehicle: saline) 105 % of control and 106 % of control; (dose: 40.0 mg/kg/injection, schedule: Q04DX003 (ip), vehicle: saline) 108 % of control and 113 % of control; (dose: 80.0 mg/kg/injection, schedule: Q04DX003 (ip), vehicle: saline) 120 % of control.
Turning to `O=S(=O)(CI)OCCCl`, the T/C was 93 % of control (dose: 50.0 mg/kg/injection, schedule: Q01DX005 (ip), vehicle: Klucel (hydroxypropylcellulose) (HPC)) and 110 % of control (dose: 100.0 mg/kg/injection, schedule: Q01DX005 (ip), vehicle: Klucel (hydroxypropylcellulose) (HPC)).
`O/N=C\c1c(O)ccc2ccccc12`: the T/C is, setting by setting: (dose: 100.0 mg/kg/injection, schedule: Q01DX001 (ip), vehicle: saline with Tween-80) 106 % of control; (dose: 200.0 mg/kg/injection, schedule: Q01DX001 (ip), vehicle: saline with Tween-80) 105 % of control; (dose: 400.0 mg/kg/injection, schedule: Q01DX001 (ip), vehicle: saline with Tween-80) 106 % of control.
Consider `CC1CN(c2ccc([N+](=O)[O-])cc2)C(C)CN1` (configuration not stated), for which the T/C is, setting by setting: (dose: 25.0 mg/kg/injection, schedule: Q04DX003 (ip), vehicle: saline) 100 % of control; under setting [10], 110 % of control; under setting [11], 90 % of control.
Turning to `COc1cc([N+](=O)[O-])c(Cl)cc1NS(=O)(=O)c1ccccc1`, the T/C is 100 % of control and 108 % of control (dose: 67.0 mg/kg/injection, schedule: Q01DX009 (ip), vehicle: saline with Tween-80); 100 % of control and 111 % of control under setting [8]; 103 % of control under setting [5]; 100 % of control and 111 % of control (dose: 150.0 mg/kg/injection, schedule: Q01DX009 (ip), vehicle: saline with Tween-80); 120 % of control (dose: 200.0 mg/kg/injection, schedule: Q01DX009 (ip), vehicle: saline with Tween-80); 92 % of control under setting [6]. For the same molecule, the T/C reads like this: (dose: 400.0 mg/kg/injection, schedule: Q01DX009 (ip), vehicle: saline with Tween-80) 105 % of control; under setting [7], 96 % of control.
On to `c1cc2c3c(c1)ncn3CCC2`, for which the T/C by setting is: (dose: 25.0 mg/kg/injection, schedule: Q04DX003 (ip), vehicle: other) 100 % of control; (dose: 50.0 mg/kg/injection, schedule: Q04DX003 (ip), vehicle: other) 100 % of control; (dose: 100.0 mg/kg/injection, schedule: Q04DX003 (ip), vehicle: other) 95 % of control.
Take `O=C1c2cccc(O)c2C(=O)c2c(OC3OC(CO)C(OC4OC(CO)C(O)C(O)C4O)C(O)C3O)cccc21` (configuration not stated): the T/C by setting is: under setting [11], 103 % of control; (dose: 200.0 mg/kg/injection, schedule: Q04DX003 (ip), vehicle: saline) 119 % of control; (dose: 400.0 mg/kg/injection, schedule: Q04DX003 (ip), vehicle: saline) 112 % of control.
`O=S(=O)(O)c1ccncc1`: the T/C is, setting by setting: (dose: 100.0 mg/kg/injection, schedule: Q01DX001 (ip), vehicle: saline) 116 % of control; (dose: 200.0 mg/kg/injection, schedule: Q01DX001 (ip), vehicle: saline) 104 % of control; under setting [9], 87 % of control.
